The values that follow come from patent US8207137B2, “Method of inhibiting angiogenesis or invasion or formation of metastases” (INSERM, priority 2001, dated 2012).

In one assay the test system is B16F10. The assay can be described thus: Cell proliferation, tritiated thymidine incorporation. The note with it: B16F10 cancer cells, mean±SEM. It is filed as cell-based, murine. As for the experimental part:
(§1) The cells were cultured at the rate of 20,000 cells per well (96-well plate, Greiner) in the complete medium. After 24 h, the cells were cultured in a medium containing a concentration lower by half than that corresponding to the complete medium to induce the cell in phase G0/G1 of proliferation for 24 supplementary hours. The cells were then cultured for 30 h with complete medium in the presence or without the presence of AMEP. Tritiated thymidine (1 μCi per well) was then added to the cells and incubated for 18 hours. Incorporation of the tritiated thymidine by the cells was quantified by filter paper according to the protocol described for the use of a Skatron (Skatron, Lier, Norway). Radioactivity was then determined by counting after addition of scintillation liquid. The results were expressed as a percentage in relation to the control.

For a further assay, the system named is HMEC-1 cells. The assay can be described thus: Formation of capillary structures in fibrin gel, Cytodex beads model. Format: cell-based, human. Here is the method:
The second model used beads on the order of 150 μm according to the technique described by Nehl et al. The cells used were HMEC-1 since CPAE could not be used in this model. The HMEC-1 cells cannot, however, be employed in the previously described model. The HMEC-1 cells adhere to the Cytodex 3 beads (Sigma) when the cells are incubated with the beads in the complete medium for 4 h at 37° C. The beads were then resuspended in a large volume of complete medium to have 30 cells/beads and agitated for 5 minutes every 30 minutes at 30 rpm for 12 h, followed by a continuous culture at the same rate for 4 days. When the entire surface of the beads was covered by cells, the beads were centrifuged at 800 g for 5 minutes to concentrate and incorporate them in a fibrin gel the same as that described for the preceding model, and the same as the methods of quantification and analysis of the results. In contrast to the model used for the CPAE, the capillary structures only appeared after 3 days of culture at 37° C.

Another assay relates to CPAE cells. The assay can be described thus: Formation of capillary structures in fibrin gel, cell aggregates model. Format: cell-based, bovine. The following applies: 5 μg/ml or 10 μg/ml, 3 days of incubation. As for the experimental part: One of the models used the aggregates of CPAE cells according to the method described by Pepper et al., 1991. In brief, 10,000 CPAE were aggregated for 24 hours on 2% agarose on a 96-well plate. Three aggregates collected and incorporated in a fibrin gel: purified fibrinogen (3 mg/ml; Kabi) was dialyzed against MEM medium then mixed with 20% of FCS, 1% of L-glutamine, 1% of penicillin/streptomycin, 2 μM of aprotinin and AMEP at the desired concentration. Human thrombin (1 IU/ml; Sigma) was then added to obtain a fibrin gel to the surface of which was added the complete medium supplemented by aprotinin (2 μM), with this medium being changed every three days. Formation of capillary structures could be observed after 24 hours of culture. These capillaries were photographed under reverse microscope and the size of these structures was measured on the photographs. The statistical analysis (Mann-Whitney method) made it possible to determine whether the size of these structures was different.

The next assay relates to B16F10 cells. The assay can be described thus: Syngenic metastatic tumor model (pulmonary metastases). It is filed as in vivo. The note with it: C57B1/6 mice, B16F10 i.v.; AMEP expressed in muscle, doxycycline induction; after 7 days of treatment. An excerpt:
The cDNA of AMEP was subcloned at the Eco RV site of the vector pBi (Clonetech, Palo Alto, Calif., USA). The expression of the gene of interest in this vector was under the dependence of a promoter responding to tetracycline in an expression system involving the eukaryote gene Tet-On. The Tet-On vector expresses the transactivator rtTA (reverse tetracycline transcriptional activator) and the vector Tet-tTS expresses the silencer tTS (tetracycline transcriptional silencer). The purifications of the plasmids were performed in a manner such that no endotoxin was present (Maxi endo free Kit, Quiagen). The purified plasmid DNA was dissolved in endotoxin-free sterile 0.9% NaCl at the desired concentration.
20 μg of plasmid pBi-AMEP, 10 μg of plasmid Tet-off and 20 μg of plasmid Tet-on were dissolved in 30 μl of sterile 0.9% NaCl and injected into the tibia cranial muscle of nude or C57B1/6 mice aged 8 weeks and previously anesthetized by intraperitoneal inoculation of pentobarbital as described by Mir et al. (Mir et al., 1999). In brief, 8 electric shocks of 200 V/cm were applied for 20 ms at a frequency of 1 Hz, by means of an electrode to the mouse paw and containing two steel plates. The electrode was connected to an electropulsator PS-15 (Jouan, St Herblain, France). The same plasmids not containing the AMEP gene constituted the negative control. […]

For another assay, the system named is CPAE. The assay can be described thus: Cell proliferation, tritiated thymidine incorporation. Format: cell-based, Bovine. As for the experimental part:
as §1

The subject of the next assay is 3T3. The assay is described as above. Format: cell-based. The note with it: 3T3, murine fibroblasts, mean±SEM. As for the experimental part:
as §1

Another assay concerns C51. The description is as above. It is filed as cell-based. The following applies: C51, murine cancer cells, mean±SEM. Here is the method:
as §1

In a further assay the test system is HMVEC-d. The description is as above. Format: cell-based. The following applies: human endothelial cells, mean±SEM. Here is the method: as §1
Another assay has as its system HMVEC. Described as above. The note with it: human endothelial cells, mean±SEM. It is filed as cell-based. As for the experimental part: as §1
For the next assay, the system named is MDA-MB-231. The description is as above. Format: cell-based. The note with it: MDA-MB-231, human cancer cells, mean±SEM. As for the experimental part:
as §1

As to “AMEP: disintegrin domain of human metargidin (Met-420 to Glu-511, SEQ ID NO. 2), 91 amino acids, 9.7 kDa; recombinant or expressed in vivo by gene electrotransfer”, the “% inhibition of cell proliferation by AMEP (5 μg/ml)” value in the assay on B16F10 is recorded as 74.3 ± 7.0%; in the assay on CPAE (bovine endothelial cells, 5 μg/ml, mean±SEM), 60.4 ± 3.2%; in the assay with 3T3, 9.1 ± 2.2%; in the assay with C51 it was 0.5 ± 1.1%; in the assay on HMVEC-d, 54.2 ± 2.1%; in the assay on HMVEC, 52.6 ± 3.1%. Moreover, in the assay with MDA-MB-231, the “% inhibition of cell proliferation by AMEP (5 μg/ml)” value was 17.5 ± 0.5%. For the same substance, in the assay with HMEC-1 cells (HMEC-1 on beads in fibrin gel, 5 μg/ml, after 10 days), the “reduction in the size of the tubes (capillary structures)” value was found to be 90%. In addition, the “effect on formation of capillary structures” value in the assay with HMEC-1 cells (HMEC-1 on beads in fibrin gel, 5 μg/ml, after three days of culture) is on record as “inhibitory effect”. Moreover, the “formation of capillary structures” value in the assay with HMEC-1 cells (model using HMEC-1, in the presence of AMEP) is given as “total inhibition”. For the same substance, the “effect on capillary structures” value in the assay with CPAE cells is recorded as “disorganization of capillary structures”. In addition, the “inhibition of the number of pulmonary metastases” value in the assay with B16F10 cells is reported as 74.2%. For the same substance, the “inhibition of proliferation of endothelial cells” value is 40% with CPAE (2 μg/ml); 60% in the assay on CPAE (5 μg/ml (maximal effect)); “identical percentage” in the assay with CPAE (10 μg/ml, compared with 60% at 5 μg/ml).
